Biological target: JAK1 (Homo sapiens (Human), UniProt P23458)
Assay: Analysis of JAK1 activity inhibition ability (ADP-Glo Kinase Assay)
Format: biochemical
Settings: JAK1 enzyme, ADP-Glo luminescence, ATP 250 uM, IRS-itide substrate, 30° C. 40 minutes; read-out: IC50
How it was run: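 JAK1 enzyme, IRS-itide substrate (40 ng/mL) and 250 uM ATP, both as prepared in kinase buffer (Tris-HCl pH 7.5, MgCl2, BSA, DTT), reacted with compound 40 min at 30 °C. ADP formed was detected by ADP-Glo luminescence; IC50 is the concentration giving 50% inhibition versus control.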

JAK1, sequence (P23458 whole entry): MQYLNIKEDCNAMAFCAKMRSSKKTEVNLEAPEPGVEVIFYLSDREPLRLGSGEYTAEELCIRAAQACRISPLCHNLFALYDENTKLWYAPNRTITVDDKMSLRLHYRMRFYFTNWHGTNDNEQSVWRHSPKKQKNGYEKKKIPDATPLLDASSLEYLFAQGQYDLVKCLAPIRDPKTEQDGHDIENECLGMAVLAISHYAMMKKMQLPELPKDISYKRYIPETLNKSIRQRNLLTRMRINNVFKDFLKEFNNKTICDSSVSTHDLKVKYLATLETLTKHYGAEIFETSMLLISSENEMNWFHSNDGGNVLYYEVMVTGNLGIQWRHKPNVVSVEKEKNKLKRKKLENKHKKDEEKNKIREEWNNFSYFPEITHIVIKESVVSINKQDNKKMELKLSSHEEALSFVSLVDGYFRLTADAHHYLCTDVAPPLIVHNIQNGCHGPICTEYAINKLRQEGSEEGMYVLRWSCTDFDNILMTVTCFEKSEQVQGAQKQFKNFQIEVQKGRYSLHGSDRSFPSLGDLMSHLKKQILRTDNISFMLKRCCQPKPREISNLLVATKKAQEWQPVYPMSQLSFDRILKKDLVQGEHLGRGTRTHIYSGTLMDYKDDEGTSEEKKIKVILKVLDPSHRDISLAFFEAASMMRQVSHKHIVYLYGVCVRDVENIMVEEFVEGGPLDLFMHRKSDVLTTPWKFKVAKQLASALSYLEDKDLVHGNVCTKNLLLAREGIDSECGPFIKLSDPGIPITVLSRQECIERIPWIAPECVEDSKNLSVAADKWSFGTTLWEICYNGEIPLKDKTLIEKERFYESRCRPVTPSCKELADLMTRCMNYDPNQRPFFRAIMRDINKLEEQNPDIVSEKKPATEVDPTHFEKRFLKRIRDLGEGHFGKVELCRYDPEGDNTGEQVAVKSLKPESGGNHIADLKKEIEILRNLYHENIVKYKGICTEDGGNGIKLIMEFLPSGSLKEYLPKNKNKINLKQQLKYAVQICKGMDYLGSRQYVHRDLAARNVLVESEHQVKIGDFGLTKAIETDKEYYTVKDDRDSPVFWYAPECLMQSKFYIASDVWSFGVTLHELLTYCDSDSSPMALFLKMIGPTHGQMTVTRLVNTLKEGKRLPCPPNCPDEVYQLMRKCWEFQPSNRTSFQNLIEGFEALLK

| SMILES | IC50 [nM] |
| --- | --- |
| COc1ccc(C(=O)N2CC=C(c3cc(NC(=O)C4CC4)nc4[nH]ccc34)C(C)C2)cc1OC (stereo not drawn) [Example 329, N-(4-(1-(3,4-dimethoxybenzoyl)-3-methyl-1,2,3,6-tetrahydropyridin-4-yl)-1H-pyrrolo[2,3-b]pyridin-6-yl)cyclopropanecarboxamide] | 20 to 200 |
| COc1cccc(C(=O)N2CC=C(c3cc(NC(=O)C4CC4)nc4[nH]ccc34)C(C)C2)c1 (stereo not drawn) [Example 330, N-(4-(1-(3-methoxybenzoyl)-3-methyl-1,2,3,6-tetrahydropyridin-4-yl)-1H-pyrrolo[2,3-b]pyridin-6-yl)cyclopropanecarboxamide] | 20 to 200 |
| CC1CN(C(=O)c2ccc([N+](=O)[O-])cc2)CC=C1c1cc(NC(=O)C2CC2)nc2[nH]ccc12 (stereo not drawn) [Example 331, N-(4-(3-methyl-1-(4-nitrobenzoyl)-1,2,3,6-tetrahydropyridin-4-yl)-1H-pyrrolo[2,3-b]pyridin-6-yl)cyclopropanecarboxamide] | 20 to 200 |
| CC(=O)c1cccc(C(=O)N2CC=C(c3cc(NC(=O)C4CC4)nc4[nH]ccc34)C(C)C2)c1 (stereo not drawn) [Example 332, N-(4-(1-(3-acetylbenzoyl)-3-methyl-1,2,3,6-tetrahydropyridin-4-yl)-1H-pyrrolo[2,3-b]pyridin-6-yl)cyclopropanecarboxamide] | > 200 |
| CC1CN(C(=O)c2ccc(Cl)cc2)CC=C1c1cc(NC(=O)C2CC2)nc2[nH]ccc12 (stereo not drawn) [Example 333, N-(4-(1-(4-chlorobenzoyl)-3-methyl-1,2,3,6-tetrahydropyridin-4-yl)-1H-pyrrolo[2,3-b]pyridin-6-yl)cyclopropanecarboxamide] | 20 to 200 |
| CC1CN(C(=O)c2cccc(Br)c2)CC=C1c1cc(NC(=O)C2CC2)nc2[nH]ccc12 (stereo not drawn) [Example 334, N-(4-(1-(3-bromobenzoyl)-3-methyl-1,2,3,6-tetrahydropyridin-4-yl)-1H-pyrrolo[2,3-b]pyridin-6-yl)cyclopropanecarboxamide] | 20 to 200 |
| CC1CN(C(=O)c2ccc(Cl)nc2)CC=C1c1cc(NC(=O)C2CC2)nc2[nH]ccc12 (stereo not drawn) [Example 335, N-(4-(1-(6-chloronicotinoyl)-3-methyl-1,2,3,6-tetrahydropyridin-4-yl)-1H-pyrrolo[2,3-b]pyridin-6-yl)cyclopropanecarboxamide] | 20 to 200 |
| CC1CN(C(=O)c2ccncc2)CC=C1c1cc(NC(=O)C2CC2)nc2[nH]ccc12 (stereo not drawn) [Example 336, N-(4-(1-isonicotinoyl-3-methyl-1,2,3,6-tetrahydropyridin-4-yl)-1H-pyrrolo[2,3-b]pyridin-6-yl)cyclopropanecarboxamide] | 20 to 200 |
| CC1CN(C(=O)c2cccc(Br)n2)CC=C1c1cc(NC(=O)C2CC2)nc2[nH]ccc12 (stereo not drawn) [Example 337, N-(4-(1-(6-bromopicolinoyl)-3-methyl-1,2,3,6-tetrahydropyridin-4-yl)-1H-pyrrolo[2,3-b]pyridin-6-yl)cyclopropanecarboxamide] | 20 to 200 |
| CC(Br)CC(=O)N1CC=C(c2cc(NC(=O)C3CC3)nc3[nH]ccc23)C(C)C1 (stereo not drawn) [Example 338, N-(4-(1-(3-bromobutanoyl)-3-methyl-1,2,3,6-tetrahydropyridin-4-yl)-1H-pyrrolo[2,3-b]pyridin-6-yl)cyclopropanecarboxamide] | 20 to 200 |
| CC1CN(C(=O)/C=C/CCBr)CC=C1c1cc(NC(=O)C2CC2)nc2[nH]ccc12 (stereo not drawn) [Example 339, (E)-N-(4-(1-(5-bromopent-2-enoyl)-3-methyl-1,2,3,6-tetrahydropyridin-4-yl)-1H-pyrrolo[2,3-b]pyridin-6-yl)cyclopropanecarboxamide] | 20 to 200 |
| CC1CN(C(=O)CC2CCCC2)CC=C1c1cc(NC(=O)C2CC2)nc2[nH]ccc12 (stereo not drawn) [Example 340, N-(4-(1-(2-cyclopentylacetyl)-3-methyl-1,2,3,6-tetrahydropyridin-4-yl)-1H-pyrrolo[2,3-b]pyridin-6-yl)cyclopropanecarboxamide] | 20 to 200 |
| COc1ccc(CC(=O)N2CC=C(c3cc(NC(=O)C4CC4)nc4[nH]ccc34)C(C)C2)cc1 (stereo not drawn) [Example 341, N-(4-(1-(2-(4-methoxyphenyl)acetyl)-3-methyl-1,2,3,6-tetrahydropyridin-4-yl)-1H-pyrrolo[2,3-b]pyridin-6-yl)cyclopropanecarboxamide] | > 200 |
| Cc1ccsc1C(=O)N1CC=C(c2cc(NC(=O)C3CC3)nc3[nH]ccc23)C(C)C1 (stereo not drawn) [Example 342, N-(4-(3-methyl-1-(3-methylthiophene-2-carbonyl)-1,2,3,6-tetrahydropyridin-4-yl)-1H-pyrrolo[2,3-b]pyridin-6-yl)cyclopropanecarboxamide] | 20 to 200 |
| CC1CN(C(=O)c2cnccn2)CC=C1c1cc(NC(=O)C2CC2)nc2[nH]ccc12 (stereo not drawn) [Example 343, N-(4-(3-methyl-1-(pyrazine-2-carbonyl)-1,2,3,6-tetrahydropyridin-4-yl)-1H-pyrrolo[2,3-b]pyridin-6-yl)cyclopropanecarboxamide] | 20 to 200 |
| Cc1cnc(C(=O)N2CC=C(c3cc(NC(=O)C4CC4)nc4[nH]ccc34)C(C)C2)cn1 (stereo not drawn) [Example 344, N-(4-(3-methyl-1-(5-methylpyrazine-2-carbonyl)-1,2,3,6-tetrahydropyridin-4-yl)-1H-pyrrolo[2,3-b]pyridin-6-yl)cyclopropanecarboxamide] | > 200 |
| CC1CN(C(=O)Cc2cccs2)CC=C1c1cc(NC(=O)C2CC2)nc2[nH]ccc12 (stereo not drawn) [Example 345, N-(4-(3-methyl-1-(2-(thiophen-2-yl)acetyl)-1,2,3,6-tetrahydropyridin-4-yl)-1H-pyrrolo[2,3-b]pyridin-6-yl)cyclopropanecarboxamide] | 20 to 200 |
| CC1CN(C(=O)Cc2cccc(F)c2)CC=C1c1cc(NC(=O)C2CC2)nc2[nH]ccc12 (stereo not drawn) [Example 346, N-(4-(1-(2-(3-fluorophenyl)acetyl)-3-methyl-1,2,3,6-tetrahydropyridin-4-yl)-1H-pyrrolo[2,3-b]pyridin-6-yl)cyclopropanecarboxamide] | 20 to 200 |
| CC1CN(C(=O)Cc2cccc(Br)c2)CC=C1c1cc(NC(=O)C2CC2)nc2[nH]ccc12 (stereo not drawn) [Example 347, N-(4-(1-(2-(3-bromophenyl)acetyl)-3-methyl-1,2,3,6-tetrahydropyridin-4-yl)-1H-pyrrolo[2,3-b]pyridin-6-yl)cyclopropanecarboxamide] | 20 to 200 |

The remaining lines, values ahead:

| IC50 [nM] | SMILES |
| --- | --- |
| 20 to 200 | CC1CN(C(=O)CCl)CC=C1c1cc(NC(=O)C2CC2)nc2[nH]ccc12 (stereo not drawn) [Example 348, N-(4-(1-(2-chloroacetyl)-3-methyl-1,2,3,6-tetrahydropyridin-4-yl)-1H-pyrrolo[2,3-b]pyridin-6-yl)cyclopropanecarboxamide] |
| 20 to 200 | CC1CN(C(=O)c2cccnc2Cl)CC=C1c1cc(NC(=O)C2CC2)nc2[nH]ccc12 (stereo not drawn) [Example 349, N-(4-(1-(2-chloronicotinoyl)-3-methyl-1,2,3,6-tetrahydropyridin-4-yl)-1H-pyrrolo[2,3-b]pyridin-6-yl)cyclopropanecarboxamide] |
| 20 to 200 | CC1CN(C(=O)c2ccc(O)cc2)CC=C1c1cc(NC(=O)C2CC2)nc2[nH]ccc12 (stereo not drawn) [Example 350, N-(4-(1-(4-hydroxybenzoyl)-3-methyl-1,2,3,6-tetrahydropyridin-4-yl)-1H-pyrrolo[2,3-b]pyridin-6-yl)cyclopropanecarboxamide] |
| 20 to 200 | CC1CN(C(=O)c2cc3ccccc3o2)CC=C1c1cc(NC(=O)C2CC2)nc2[nH]ccc12 (stereo not drawn) [Example 352, N-(4-(1-(benzofuran-2-carbonyl)-3-methyl-1,2,3,6-tetrahydropyridin-4-yl)-1H-pyrrolo[2,3-b]pyridin-6-yl)cyclopropanecarboxamide] |
| 20 to 200 | CC1CN(C(=O)c2ccc(Cl)c(Cl)c2)CC=C1c1cc(NC(=O)C2CC2)nc2[nH]ccc12 (stereo not drawn) [Example 353, N-(4-(1-(3,4-dichlorobenzoyl)-3-methyl-1,2,3,6-tetrahydropyridin-4-yl)-1H-pyrrolo[2,3-b]pyridin-6-yl)cyclopropanecarboxamide] |
| 20 to 200 | CC1CN(C(=O)c2ccc(S(C)(=O)=O)cc2)CC=C1c1cc(NC(=O)C2CC2)nc2[nH]ccc12 (stereo not drawn) [Example 354, N-(4-(3-methyl-1-(4-(methylsulfonyl)benzoyl)-1,2,3,6-tetrahydropyridin-4-yl)-1H-pyrrolo[2,3-b]pyridin-6-yl)cyclopropanecarboxamide] |
| 20 to 200 | CC1CN(C(=O)c2ccc(F)cc2Cl)CC=C1c1cc(NC(=O)C2CC2)nc2[nH]ccc12 (stereo not drawn) [Example 355, N-(4-(1-(2-chloro-4-fluorobenzoyl)-3-methyl-1,2,3,6-tetrahydropyridin-4-yl)-1H-pyrrolo[2,3-b]pyridin-6-yl)cyclopropanecarboxamide] |
| > 200 | COc1ccc(C(=O)N2CC=C(c3cc(NC(=O)C4CC4)nc4[nH]ccc34)C(C)C2)c(OC)c1 (stereo not drawn) [Example 356, N-(4-(1-(2,4-dimethoxybenzoyl)-3-methyl-1,2,3,6-tetrahydropyridin-4-yl)-1H-pyrrolo[2,3-b]pyridin-6-yl)cyclopropanecarboxamide] |
| 20 to 200 | CSc1ccccc1C(=O)N1CC=C(c2cc(NC(=O)C3CC3)nc3[nH]ccc23)C(C)C1 (stereo not drawn) [Example 357, N-(4-(3-methyl-1-(2-(methylthio)benzoyl)-1,2,3,6-tetrahydropyridin-4-yl)-1H-pyrrolo[2,3-b]pyridin-6-yl)cyclopropanecarboxamide] |
| 20 to 200 | CC1CN(C(=O)c2cc(F)cc(F)c2)CC=C1c1cc(NC(=O)C2CC2)nc2[nH]ccc12 (stereo not drawn) [Example 358, N-(4-(1-(3,5-difluorobenzoyl)-3-methyl-1,2,3,6-tetrahydropyridin-4-yl)-1H-pyrrolo[2,3-b]pyridin-6-yl)cyclopropanecarboxamide] |
| 20 to 200 | CC1CN(C(=O)C(C#N)Cc2ccc(F)cc2)CC=C1c1cc(NC(=O)C2CC2)nc2[nH]ccc12 (stereo not drawn) [Example 359, N-(4-(1-(2-cyano-3-(4-fluorophenyl)propanoyl)-3-methyl-1,2,3,6-tetrahydropyridin-4-yl)-1H-pyrrolo[2,3-b]pyridin-6-yl)cyclopropanecarboxamide] |

— patent US11524968B2, “Heterocyclic compound as a protein kinase inhibitor” (HK inno.N Corporation, priority 2017, dated 2022)
